Experimental data: ChEMBL document CHEMBL1140081 (J Med Chem, 2008)

Columns and labels:
[1] = tested on: Human immunodeficiency virus 1; experiment: Antiviral activity against HIV1 3B in human MT4 cells in presence of 50% normal human serum; format: functional; conditions: read-out: CIC95
[2] = Inhibition of HCV polymerase; design: species or system Hepacivirus hominis
[3] = Inhibition of HIV reverse transcriptase; design: species or system Human immunodeficiency virus
[4] = Inhibition of HIV ribonuclease H; design: species or system Human immunodeficiency virus
[5] = Inhibition of human DNA polymerase alpha
DNA polymerase beta = DNA polymerase beta (Homo sapiens, UniProt P06746); experiment: Inhibition of human DNA polymerase beta
[6] = Inhibition of human DNA polymerase gamma
Cytochrome P450 1A2 = biological target: T1, Cytochrome P450 1A2 (Homo sapiens, UniProt P05177); experiment: Inhibition of CYP1A2; format: ADME
T1 sequence (P05177 whole entry): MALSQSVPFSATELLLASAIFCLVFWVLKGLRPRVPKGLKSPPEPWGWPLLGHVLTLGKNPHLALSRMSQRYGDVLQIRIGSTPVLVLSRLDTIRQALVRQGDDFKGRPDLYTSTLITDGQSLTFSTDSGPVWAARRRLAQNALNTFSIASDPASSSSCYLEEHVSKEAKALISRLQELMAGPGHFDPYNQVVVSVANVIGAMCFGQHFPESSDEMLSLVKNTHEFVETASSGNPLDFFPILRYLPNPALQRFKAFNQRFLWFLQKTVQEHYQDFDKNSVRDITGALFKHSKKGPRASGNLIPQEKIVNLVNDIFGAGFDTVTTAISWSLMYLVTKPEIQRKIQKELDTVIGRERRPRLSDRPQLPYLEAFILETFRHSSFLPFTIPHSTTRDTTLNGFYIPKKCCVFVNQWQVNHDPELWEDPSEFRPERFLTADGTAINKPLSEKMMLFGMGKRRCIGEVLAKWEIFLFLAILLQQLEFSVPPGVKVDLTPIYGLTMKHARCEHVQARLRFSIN

Cytochrome P450 2C9 = Cytochrome P450 2C9 (Homo sapiens, UniProt P11712); experiment: Inhibition of CYP2C9; format: ADME
Chain of Cytochrome P450 2C9 (P11712 whole entry): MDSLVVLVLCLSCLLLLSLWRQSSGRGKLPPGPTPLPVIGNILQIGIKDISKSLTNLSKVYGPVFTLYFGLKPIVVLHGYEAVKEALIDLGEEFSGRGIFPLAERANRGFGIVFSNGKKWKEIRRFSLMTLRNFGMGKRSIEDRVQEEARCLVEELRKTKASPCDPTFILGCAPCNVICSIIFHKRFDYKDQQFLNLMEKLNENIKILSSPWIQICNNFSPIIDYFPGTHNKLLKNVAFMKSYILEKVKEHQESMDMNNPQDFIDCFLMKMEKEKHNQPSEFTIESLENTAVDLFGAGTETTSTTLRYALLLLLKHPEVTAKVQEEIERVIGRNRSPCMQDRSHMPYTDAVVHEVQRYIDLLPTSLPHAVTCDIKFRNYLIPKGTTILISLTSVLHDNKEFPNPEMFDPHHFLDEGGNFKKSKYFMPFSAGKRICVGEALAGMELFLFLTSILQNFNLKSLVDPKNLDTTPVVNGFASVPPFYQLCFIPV

Cytochrome P450 2D6 = Cytochrome P450 2D6 (Homo sapiens, UniProt P10635); experiment: Inhibition of CYP2D6; format: ADME
Chain of Cytochrome P450 2D6 (P10635 whole entry): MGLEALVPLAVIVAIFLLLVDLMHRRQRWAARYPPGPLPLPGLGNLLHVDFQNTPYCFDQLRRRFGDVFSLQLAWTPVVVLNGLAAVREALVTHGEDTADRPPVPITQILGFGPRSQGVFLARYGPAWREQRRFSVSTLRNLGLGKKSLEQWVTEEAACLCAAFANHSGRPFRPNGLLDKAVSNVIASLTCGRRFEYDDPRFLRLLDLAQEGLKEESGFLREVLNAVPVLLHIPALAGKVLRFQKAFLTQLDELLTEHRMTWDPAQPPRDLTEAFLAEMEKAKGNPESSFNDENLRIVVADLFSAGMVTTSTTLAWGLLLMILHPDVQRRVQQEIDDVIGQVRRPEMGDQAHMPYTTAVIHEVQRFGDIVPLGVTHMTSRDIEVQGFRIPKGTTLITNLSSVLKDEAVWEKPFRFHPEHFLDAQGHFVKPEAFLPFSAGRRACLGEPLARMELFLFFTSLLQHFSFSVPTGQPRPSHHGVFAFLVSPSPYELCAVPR

Cytochrome P450 3A4 = Cytochrome P450 3A4 (Homo sapiens, UniProt P08684); experiment: Inhibition of CYP3A4; format: ADME
Chain of Cytochrome P450 3A4 (P08684 whole entry): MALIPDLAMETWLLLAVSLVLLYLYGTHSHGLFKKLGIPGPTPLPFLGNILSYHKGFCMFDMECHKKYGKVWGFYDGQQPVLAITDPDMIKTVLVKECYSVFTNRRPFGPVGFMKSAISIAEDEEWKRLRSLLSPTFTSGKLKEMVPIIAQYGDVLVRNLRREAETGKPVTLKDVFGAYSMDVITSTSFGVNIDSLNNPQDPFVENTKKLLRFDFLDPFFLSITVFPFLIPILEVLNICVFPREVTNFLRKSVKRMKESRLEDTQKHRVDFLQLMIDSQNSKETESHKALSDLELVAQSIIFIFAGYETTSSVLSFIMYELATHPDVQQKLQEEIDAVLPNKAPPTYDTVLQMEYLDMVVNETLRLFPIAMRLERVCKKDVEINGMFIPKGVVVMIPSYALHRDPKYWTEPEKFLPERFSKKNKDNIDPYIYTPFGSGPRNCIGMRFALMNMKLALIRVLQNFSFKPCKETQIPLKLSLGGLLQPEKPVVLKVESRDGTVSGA

[7] = Plasma clearance in Sprague-Dawley rat at 3 mg/kg, iv; format: ADME, organism-based; design: dose 3 mg/kg, route intravenous
[8] = Terminal half life in Sprague-Dawley rat at 3 mg/kg, iv; format: ADME, organism-based; design: dose 3 mg/kg, route intravenous; conditions: in vivo, read-out: beta t1/2 (converted)
[9] = Volume of distribution in Sprague-Dawley rat at 3 mg/kg, iv; format: ADME, organism-based; design: dose 3 mg/kg, route intravenous; conditions: in vivo
[10] = Plasma clearance in rhesus monkey at 1 mg/kg, iv; format: ADME, organism-based, Macaca mulatta; design: dose 1 mg/kg, route intravenous
[11] = Terminal half life in rhesus monkey at 1 mg/kg, iv; format: ADME, organism-based, Macaca mulatta; design: dose 1 mg/kg, route intravenous; conditions: in vivo, read-out: beta t1/2 (converted)
[12] = Plasma clearance in dog at 1 mg/kg, iv; format: ADME, organism-based, Canis lupus familiaris; design: dose 1 mg/kg, route intravenous
[13] = Terminal half life in dog at 1 mg/kg, iv; format: ADME, organism-based, Canis lupus familiaris; design: dose 1 mg/kg, route intravenous; conditions: in vivo, read-out: beta t1/2 (converted)
[14] = Volume of distribution in dog at 1 mg/kg, iv; format: ADME, organism-based, Canis lupus familiaris; design: dose 1 mg/kg, route intravenous; conditions: in vivo
[15] = Oral bioavailability in po dosed Sprague-Dawley rat; format: ADME, organism-based; conditions: in vivo
[16] = Oral bioavailability in po dosed dog; format: ADME, organism-based, Canis lupus familiaris; conditions: in vivo
[17] = Oral bioavailability in po dosed rhesus monkey; format: ADME, organism-based, Macaca mulatta; conditions: in vivo
[18] = Cmax in Sprague-Dawley rat at 3 mg/kg, po; format: ADME, organism-based; design: dose 3 mg/kg, route oral; conditions: in vivo
[19] = Cmax in dog at 10 mg/kg, po; format: ADME, organism-based, Canis lupus familiaris; design: dose 10 mg/kg, route oral; conditions: in vivo
[20] = Cmax in dog at 2 mg/kg, po; format: ADME, organism-based, Canis lupus familiaris; design: dose 2 mg/kg, route oral; conditions: in vivo
[21] = Cmax in po dosed rhesus monkey; format: ADME, organism-based, Macaca mulatta; design: route oral; conditions: in vivo
[22] = Terminal half life in po dosed rhesus monkey; format: ADME, organism-based, Macaca mulatta; conditions: in vivo, read-out: beta t1/2 (converted)
[23] = AUC in Sprague-Dawley rat at 3 mg/kg, po; format: ADME, organism-based; design: dose 3 mg/kg, route oral; conditions: plasma
[24] = AUC in dog at 10 mg/kg, po; format: ADME, organism-based, Canis lupus familiaris; design: dose 10 mg/kg, route oral; conditions: plasma
[25] = AUC in rhesus monkey at 10 mg/kg, po; format: ADME, organism-based, Macaca mulatta; design: dose 10 mg/kg, route oral; conditions: plasma
[26] = AUC in dog at 2 mg/kg, po; format: ADME, organism-based, Canis lupus familiaris; design: dose 2 mg/kg, route oral; conditions: plasma
[27] = tested on: Human immunodeficiency virus 1; experiment: Antiviral activity against HIV1 with integrase T66I/M154 mutation by single cycle infectivity assay in presence of 10%FBS; format: functional
[28] = tested on: Human immunodeficiency virus 1; experiment: Antiviral activity against HIV1 with integrase T66I/S153Y mutation by single cycle infectivity assay in presence of 10%FBS; format: functional
[29] = tested on: Human immunodeficiency virus 1; experiment: Antiviral activity against HIV1 with integrase N155S mutation by single cycle infectivity assay in presence of 10%FBS; format: functional
[30] = tested on: Human immunodeficiency virus 1; experiment: Antiviral activity against HIV1 with integrase T125K/F121Y mutation by single cycle infectivity assay in presence of 10%FBS; format: functional
[31] = tested on: Human immunodeficiency virus 1; experiment: Antiviral activity against HIV1 with integrase T66I/L74M/V151I mutation by single cycle infectivity assay in presence of 10%FBS; format: functional
[32] = Volume of distribution in rhesus monkey at 1 mg/kg, iv; conditions: in vivo
[33] = tested on: Human immunodeficiency virus 1; experiment: Antiviral activity against HIV1 3B in human MT4 cells in presence of 10% heat-inactivated fetal bovine serum; conditions: Human immunodeficiency virus 1, 3B, read-out: CIC95
[34] = biological target: Human immunodeficiency virus type 1 integrase (Human immunodeficiency virus 1, UniProt Q7ZJM1); experiment: Inhibition of HIV1 recombinant integrase strand transfer activity
Chain of Human immunodeficiency virus type 1 integrase (Q7ZJM1 whole entry): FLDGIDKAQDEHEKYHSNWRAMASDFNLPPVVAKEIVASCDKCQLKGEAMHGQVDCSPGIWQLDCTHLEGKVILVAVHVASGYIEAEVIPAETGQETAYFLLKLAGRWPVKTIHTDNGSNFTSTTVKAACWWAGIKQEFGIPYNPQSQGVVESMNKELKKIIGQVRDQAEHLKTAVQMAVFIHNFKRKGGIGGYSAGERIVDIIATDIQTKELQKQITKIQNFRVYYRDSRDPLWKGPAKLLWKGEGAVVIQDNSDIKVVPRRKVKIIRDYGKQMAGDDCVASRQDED

[35] = biological target: Voltage-gated inwardly rectifying potassium channel KCNH2 (Homo sapiens, UniProt Q12809); experiment: Binding affinity to human ERG
Chain of Voltage-gated inwardly rectifying potassium channel KCNH2 (Q12809 whole entry): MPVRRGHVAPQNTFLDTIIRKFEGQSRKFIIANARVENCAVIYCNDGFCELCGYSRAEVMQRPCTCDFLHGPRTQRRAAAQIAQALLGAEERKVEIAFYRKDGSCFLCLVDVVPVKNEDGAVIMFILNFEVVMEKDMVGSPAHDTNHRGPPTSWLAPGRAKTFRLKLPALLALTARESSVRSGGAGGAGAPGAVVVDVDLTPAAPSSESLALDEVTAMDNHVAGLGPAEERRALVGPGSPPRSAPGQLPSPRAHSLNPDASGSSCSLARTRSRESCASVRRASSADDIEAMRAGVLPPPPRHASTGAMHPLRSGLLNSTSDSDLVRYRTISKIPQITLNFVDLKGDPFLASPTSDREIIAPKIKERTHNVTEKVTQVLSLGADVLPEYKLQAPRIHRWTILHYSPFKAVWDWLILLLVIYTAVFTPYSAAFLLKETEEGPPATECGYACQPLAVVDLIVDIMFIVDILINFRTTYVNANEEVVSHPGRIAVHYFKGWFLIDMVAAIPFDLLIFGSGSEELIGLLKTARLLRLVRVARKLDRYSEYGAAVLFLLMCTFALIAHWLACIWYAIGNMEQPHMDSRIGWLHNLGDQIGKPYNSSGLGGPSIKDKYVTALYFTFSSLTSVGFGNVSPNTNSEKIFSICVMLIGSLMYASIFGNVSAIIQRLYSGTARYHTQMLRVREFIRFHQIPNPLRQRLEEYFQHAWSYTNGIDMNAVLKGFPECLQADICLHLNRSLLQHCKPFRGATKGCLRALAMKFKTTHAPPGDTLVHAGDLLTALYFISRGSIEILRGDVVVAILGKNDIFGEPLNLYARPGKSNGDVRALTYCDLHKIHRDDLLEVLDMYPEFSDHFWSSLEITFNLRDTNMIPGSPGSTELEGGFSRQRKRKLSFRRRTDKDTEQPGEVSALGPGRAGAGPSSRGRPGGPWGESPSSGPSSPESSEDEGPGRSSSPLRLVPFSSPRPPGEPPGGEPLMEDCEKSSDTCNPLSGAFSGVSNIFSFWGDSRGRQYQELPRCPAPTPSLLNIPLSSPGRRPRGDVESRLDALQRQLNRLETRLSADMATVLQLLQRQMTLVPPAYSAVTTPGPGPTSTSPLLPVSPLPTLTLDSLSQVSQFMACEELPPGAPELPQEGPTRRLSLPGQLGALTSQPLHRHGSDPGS

[36] = Primary phase half life in Sprague-Dawley rat at 3 mg/kg, iv; format: ADME, organism-based; design: dose 3 mg/kg, route intravenous; conditions: in vivo, read-out: alphat1/2 (converted)
[37] = Plasma clearance in dog at 5 mg/kg, iv; format: ADME, organism-based, Canis lupus familiaris; design: dose 5 mg/kg, route intravenous
[38] = Primary phase half life in dog at 5 mg/kg, iv; format: ADME, organism-based, Canis lupus familiaris; design: dose 5 mg/kg, route intravenous; conditions: in vivo, read-out: alphat1/2 (converted)
[39] = Terminal half life in dog at 5 mg/kg, iv; format: ADME, organism-based, Canis lupus familiaris; design: dose 5 mg/kg, route intravenous; conditions: in vivo, read-out: beta t1/2 (converted)
[40] = Volume of distribution in dog at 5 mg/kg, iv; format: ADME, organism-based, Canis lupus familiaris; design: dose 5 mg/kg, route intravenous; conditions: in vivo
[41] = Primary phase half life in rhesus monkey at 1 mg/kg, iv; format: ADME, organism-based, Macaca mulatta; design: dose 1 mg/kg, route intravenous; conditions: in vivo, read-out: alphat1/2 (converted)
[42] = Cmax in rhesus monkey at 10 mg/kg, po; format: ADME, organism-based, Macaca mulatta; design: dose 10 mg/kg, route oral; conditions: in vivo
[43] = Terminal half life in po dosed Sprague-Dawley rat; format: ADME, organism-based; conditions: in vivo
[44] = Terminal half life in dog at 10 mg/kg, po; format: ADME, organism-based, Canis lupus familiaris; design: dose 10 mg/kg, route oral; conditions: in vivo, read-out: beta t1/2 (converted)
[45] = AUC in Sprague-Dawley rat at 100 mg/kg, po using 1% methyl cellulose as vehicle; format: ADME, organism-based; design: dose 100 mg/kg, route oral; conditions: in vivo
[46] = Cmax in Sprague-Dawley rat at 100 mg/kg, po using 1% methyl cellulose as vehicle; format: ADME, organism-based; design: dose 100 mg/kg, route oral; conditions: in vivo
[47] = AUC in Sprague-Dawley rat at 100 mg/kg, po using PEG400 as vehicle; format: ADME, organism-based; design: dose 100 mg/kg, route oral; conditions: plasma
[48] = Cmax in Sprague-Dawley rat at 100 mg/kg, po using PEG400 as vehicle; format: ADME, organism-based; design: dose 100 mg/kg, route oral; conditions: in vivo
[49] = Cmax in po dosed Sprague-Dawley rat; format: ADME, organism-based; design: route oral; conditions: in vivo
[50] = Plasma concentration in dog at 10 mg/kg, po after 12 hrs; format: ADME, organism-based, Canis lupus familiaris; design: dose 10 mg/kg, route oral
[51] = Plasma concentration in dog at 2 mg/kg, po after 12 hrs; format: ADME, organism-based, Canis lupus familiaris; design: dose 2 mg/kg, route oral
[52] = Human immunodeficiency virus 1, 3B, MT4

For Cc1nnc(C(=O)NC(C)(C)c2nc(C(=O)NCc3ccc(F)cc3)c(O)c(=O)n2C)o1, the IC95 [1, 52] was 0.031 µM, the IC50 [2] was > 50 µM and the IC50 [3] was > 50 µM. The IC50 [4] was > 50 µM, the IC50 [5] was > 50 µM and the IC50 (DNA polymerase beta) was > 50 µM. The IC50 [6] was > 50 µM, the IC50 (Cytochrome P450 1A2) was > 50 µM and the IC50 (Cytochrome P450 2C9) was > 50 µM. The IC50 (Cytochrome P450 2D6) was > 50 µM, the IC50 (Cytochrome P450 3A4) was > 50 µM and the clearance [7] was 39 mL/min/kg. The half-life [8] was 120 min, the Vd [9] was 2 L/kg and the clearance [10] was 18 mL/min/kg. For the same compound, the half-life [11] was 240 min, the clearance [12] was 6 mL/min/kg and the half-life [13] was 660 min. For the same compound, the Vd [14] was 0.9 L/kg, the bioavailability [15] was 37% and the bioavailability [16] was 45%. For the same compound, the bioavailability [17] was 8%, the Cmax [18] was 1200 nM and the Cmax [19] was 8 µM. The Cmax [20] was 3 µM, the Cmax [21] was 300 nM and the half-life [22] was 420 min. It also gave an AUC [23] of 1 µM·h, an AUC [24] of 21 µM·h and an AUC [25] of 1.8 µM·h. It also gave an AUC [26] of 7 µM·h, an Activity [27] of 1% and an Activity [28] of 1%. The Activity [29] was 10%, the Activity [30] was 8% and the Activity [31] was 6%. It also gave a Vd [32] of 1.2 L/kg and an IC95 [33] of 0.019 µM.

In the case of CN(C)C(=O)C(=O)NC(C)(C)c1nc(C(=O)NCc2ccc(F)cc2)c(O)c(=O)n1C, the IC50 [34] is reported as 10 nM, the IC95 [1, 52] is reported as 0.074 µM and the IC50 [2] is reported as > 50 µM. The IC50 [3] was > 50 µM, the IC50 [4] was > 50 µM and the IC50 [5] was > 50 µM. For the same compound, the IC50 (DNA polymerase beta) was > 50 µM, the IC50 [6] was > 50 µM and the IC50 (Cytochrome P450 1A2) was > 50 µM. For the same compound, the IC50 (Cytochrome P450 2C9) was > 50 µM, the IC50 (Cytochrome P450 2D6) was > 50 µM and the IC50 (Cytochrome P450 3A4) was > 50 µM. The IC50 [35] was > 50 µM, the clearance [7] was 20 mL/min/kg and the half-life [36] was 24 min. The half-life [8] was 360 min, the Vd [9] was 1.3 L/kg and the clearance [37] was 11 mL/min/kg. It also gave a half-life [38] of 72 min, a half-life [39] of 960 min and a Vd [40] of 1.1 L/kg. The clearance [10] was 14 mL/min/kg, the half-life [41] was 54 min and the half-life [11] was 180 min. It also gave a bioavailability [17] of 24%, a Cmax [18] of 600 nM and a Cmax [19] of 11 µM. For the same compound, the Cmax [42] was 4.5 µM, the half-life [43] was 54 min and the half-life [44] was 294 min. For the same compound, the half-life [22] was 114 min, the AUC [23] was 0.7 µM·h and the AUC [24] was 23 µM·h. The AUC [25] was 5.2 µM·h, the AUC [45] was 23 µM·h and the Activity [27] was 5%. For the same compound, the Activity [28] was 8%, the Activity [29] was 40% and the Activity [30] was 19%. The Activity [31] was 35%, the Cmax [46] was 12 µM and the AUC [47] was 49 µM·h. For the same compound, the Cmax [48] was 31 µM, the Vd [32] was 2.9 L/kg and the IC95 [33] was 0.045 µM.

Cc1nnc(C(=O)NC(C)(C)c2nc(C(=O)NCc3ccc(F)cc3)c([O-])c(=O)n2C)o1.[K+] [RALTEGRAVIR POTASSIUM] gave an IC95 [1] of 0.031 µM, a bioavailability [15] of 45% and a bioavailability [16] of 69%. For the same compound, the Cmax [19] was 24 µM, the Cmax [49] was 1600 nM and the Cmax [20] was 4.6 µM. The half-life [43] was 450 min, the half-life [44] was 780 min and the AUC [23] was 1.3 µM·h. It also gave an AUC [26] of 11 µM·h, a concentration at 12 h [50] of 350 nM and a concentration at 12 h [51] of 160 nM.
